Laboratory results from publication PMC12610816, “New Dihalogenated Derivatives of Condensed Benzimidazole Diones Promotes Cancer Cell Death Through Regulating STAT3/HK2 Axis/Pathway” (Molecules, 2025).

Assays:
[1] = system: phosphofructokinase I; assay: Glycolytic enzyme activity in treated cells (colorimetric kit); format: cell-based, human; conditions: MCF-7 cells, 24-h incubation, 1/2 IC50
[2] = molecular target: T1, pyruvate kinase M2 (Homo sapiens, UniProt P14618); assay: as above; format: cell-based; conditions: MCF-7 cells, 24-h incubation, 1/2 IC50
T1 construct: activity of rate-limiting glycolytic enzymes—hexokinase II, phosphofructokinase I, and pyruvate kinase M2—in MCF-7 cells; endogenous in cells

[3] = system: SH-SY5Y; assay: MTT cytotoxicity assay; format: cell-based; conditions: Human neuroblastoma, 24 h, read-out: IC50 of Cytotoxic Effect, SH-SY5Y
Method: (§1) Human lung adenocarcinoma A549 cells, breast carcinoma MCF-7 cells, colon adenocarcinoma SW480 cells, neuroblastoma SH-SY5Y cells, and normal human embryonic kidney HEK-293 cells were obtained from the collection of the Institute of Cytology of the Russian Academy of Sciences (Saint Petersburg, Russia). Cultivation was performed in complete DMEM supplemented with glutamax, containing 10% fetal bovine serum and 1% penicillin-streptomycin. Cell cultures were incubated at 37 °C in a humidified atmosphere with 5% CO2.
(§2) The MTT assay was used to determine the cytotoxic profile of the synthesized compounds [128]. This method is based on the reduction of the tetrazolium salt (3-(4,5-dimethylthiazol-2-yl)-2,5-diphenyl tetrazolium bromide) by mitochondrial dehydrogenases of living cells to water-insoluble formazan crystals.
(§3) Cells in the exponential growth phase were seeded in 96-well culture plates. After 24 h, the test compounds were added to each well at various concentrations (from 0.01 to 100 µM) in triplicate. Control wells contained 1% DMSO solution.
(§4) Following a 24-h incubation with the compounds, 5 mg/mL MTT solution was added to each well, and the cells were incubated at 37 °C for 2 h. Then, the MTT solution was carefully removed, and 200 µL DMSO was added to dissolve the formed formazan crystals. Optical density was measured at a wavelength of 540 nm.
(§5) The efficacy indicators of the cytotoxic effect were IC50 values, representing compound concentrations causing 50% cell death in the sample.

[4] = system: MCF-7; assay: MTT cytotoxicity assay; format: cell-based; conditions: MCF7, Human breast adenocarcinoma cells, 24 h, read-out: IC50 of Cytotoxic Effect, MCF-7
Method: as §1, §2, §3, §4, §5

[5] = system: A549; assay: MTT cytotoxicity assay; format: cell-based; conditions: Human non-small cell lung cancer, 24 h, read-out: IC50 of Cytotoxic Effect, A549
Method: as §1, §2, §3, §4, §5

[6] = MTT cytotoxicity assay; format: cell-based; conditions: HEK-293 cells (normal embryonic kidney), Human embryonic kidney (normal origin), read-out: IC50 of Cytotoxic Effect, Hek-293
Method: as §1, §2, §3, §4, §5

[7] = system: SW-480; assay: MTT cytotoxicity assay; format: cell-based; conditions: SW480, Human colorectal cancer cells, 24 h, read-out: IC50 of Cytotoxic Effect, SW-480
Method: as §1, §2, §3, §4, §5

[8] = system: hexokinase II; assay: Glycolytic enzyme activity in treated cells (colorimetric kit); format: cell-based, human; conditions: MCF-7 cells, 24-h incubation, 1/2 IC50
[9] = MTT cytotoxicity assay, whole cell line panel; format: cell-based; conditions: human; summary of Table 1 over all five cell lines; read-out: IC50 values of the cytotoxic effect, range over the cell lines
Method: The cytotoxic effects of the synthesized compounds were tested on the cell lines A549, MCF-7, SW-480, SH-SY5Y, and HEK-293.

T1 sequence (P14618 whole entry): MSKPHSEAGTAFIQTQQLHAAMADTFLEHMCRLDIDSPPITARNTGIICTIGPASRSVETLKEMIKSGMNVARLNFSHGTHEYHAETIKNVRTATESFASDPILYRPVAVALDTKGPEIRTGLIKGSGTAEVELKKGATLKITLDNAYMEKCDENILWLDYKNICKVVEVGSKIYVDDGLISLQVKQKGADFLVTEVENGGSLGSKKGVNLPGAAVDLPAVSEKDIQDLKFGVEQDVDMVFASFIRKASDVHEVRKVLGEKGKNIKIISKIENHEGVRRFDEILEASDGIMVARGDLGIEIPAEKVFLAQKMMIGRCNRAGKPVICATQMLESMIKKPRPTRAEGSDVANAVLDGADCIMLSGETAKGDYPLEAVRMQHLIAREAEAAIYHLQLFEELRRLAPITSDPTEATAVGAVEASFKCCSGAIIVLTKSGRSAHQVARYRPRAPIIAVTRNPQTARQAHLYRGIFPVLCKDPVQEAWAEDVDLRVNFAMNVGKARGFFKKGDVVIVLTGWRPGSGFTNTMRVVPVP

Row | SMILES | Inhibition of enzyme activity, % of control: PFK1 [1] | Inhibition of enzyme activity, % of control: PKM2 [2] | IC50 [3] [µM] | IC50 [4] [µM] | IC50 [5] [µM] | IC50 at 24 h [6] [µM] | IC50 [7] [µM] | Inhibition of enzyme activity, % of control: HK2 [8] | IC50 at 24 h [9] [µM]
1 | O=C1C(Br)=C(Br)C(=O)c2c1nc1n2CCCC1 [Compound 6a, 7,8-dibromo-1,2,3,4-tetrahydropyrido[1,2-a]benzimidazole-6,9-dione] | 9.75 % of control | 11.39 % of control | 9.66 ± 0.57 | 8.81 ± 1.65 | 9.53 ± 0.59 | 24.8 ± 0.42 | 9.11 ± 0.13 | – | –
2 | O=C1C(Br)=C(Cl)C(=O)c2c1nc1n2CCCC1 [Compound 6b, 7-bromo-8-chloro-1,2,3,4-tetrahydropyrido[1,2-a]benzimidazole-6,9-dione] | 7.49 % of control | 14.85 % of control | 8.6 ± 0.06 | 7.79 ± 0.03 | 8.86 ± 3.19 | 16.52 ± 0.15 | 10.5 ± 0.68 | 34.25 % of control | –
3 | O=C1C(Cl)=C(Br)C(=O)c2c1nc1n2CCCC1 [Compound 6c, 8-bromo-7-chloro-1,2,3,4-tetrahydropyrido[1,2-a]benzimidazole-6,9-dione] | 9.05 % of control | 13.57 % of control | 9.49 ± 0.8 | 8.35 ± 0.32 | 7.81 ± 0.64 | 16 ± 0.18 | 10.22 ± 0.04 | 36.01 % of control | –
4 | O=C1C(Cl)=C(Cl)C(=O)c2c1nc1n2CCCC1 [Compound 6d, 7,8-dichloro-1,2,3,4-tetrahydropyrido[1,2-a]benzimidazole-6,9-dione] | 8.30 % of control | 9.48 % of control | 8.52 ± 0.49 | 8.52 ± 0.23 | 7.76 ± 0.17 | 15.1 ± 0.38 | 8.68 ± 0.2 | – | –
5 | CC1CCn2c(nc3c2C(=O)C(Br)=C(Cl)C3=O)C1 (stereo not shown) [Compound 6e, 8-bromo-7-chloro-3-methyl-1,2,3,4-tetrahydropyrido[1,2-a]benzimidazole-6,9-dione] | 7.40 % of control | 8.36 % of control | 9.28 ± 0.15 | 8.97 ± 0.05 | 8.23 ± 0.39 | 20.2 ± 0.3 | 9.53 ± 0.51 | 36.22 % of control | –
6 | O=C1C(Cl)=C(Br)C(=O)c2c1nc1n2CCOC1 [Compound 6f, 7-bromo-8-chloro-3,4-dihydro-1H-[1,4]oxazino[4,3-a]benzimidazole-6,9-dione] | 7.57 % of control | 12.09 % of control | 10.8 ± 0.93 | 8.9 ± 0.19 | 11.3 ± 2.49 | 25.38 ± 0.02 | 8.44 ± 0.07 | 30.83 % of control | –
7 | CO[C@@]12[C@H](COC(N)=O)C3=C(C(=O)C(C)=C(N)C3=O)N1C[C@@H]1N[C@@H]12 [Mytomycin C, Mitomycin C, reference compound] | – | – | 7.04 ± 0.02 | 20.4 ± 1.74 | 18.1 ± 1.8 | 6.59 ± 1.46 | 11.3 ± 0.46 | – | 8 to 20
